Like-named read-outs stand apart in the source and are kept apart here. Positions of bridges follow the written chain, without caps; N, C: chain ends. Non-standard residues stand in square brackets, D forms with d. Residues, ends and D or L forms follow the SMILES beside them. Groups on a side chain read outwards from the residue. Chains are numbered I, II in the order given. *: point of attachment. X9 = NCCNCC(CNCCN)C(=O)NC[C@@H](NC(=O)CC[C@@H](NC(=O)N[C@H](CCC(=O)O)C(=O)O)C(=O)O)C(=O)*; X8 = NCCNCC(CNCCN)C(=O)NC[C@@H](NC(=O)CCC(NC(=O)N[C@H](CCC(=O)O)C(=O)O)C(=O)O)C(=O)*; 2Nal = N[C@@H](Cc1ccc2ccccc2c1)C(=O)O; dNMeOrn = CN[C@H](CCCN)C(=O)O; Mercaptoacetyl = O=C(CS)*; 4Abz = Nc1ccc(C(=O)O)cc1; dDap = NC[C@@H](N)C(=O)O; Ahx = NCCCCCC(=O)O
Experiments:
[1] = Biodistribution in Daudi xenograft bearing CB-17 SCID mice; type: in vivo; details: mouse, iv, total radioactivity, 1 h p.i., CB-17 SCID female mice
CXCR4 [2] = molecular target: T1, CXCR4 (Homo sapiens, UniProt P61073); test: Determination of IC50: competition with 125I-Fc-131 on CXCR4-positive Jurkat cells; type: binding; set-up: CXCR4-positive Jurkat T lymphocyte cells were grown in Gibco's RPMI 1640 GlutaMAX medium; endogenous in cells; host or cells: Jurkat T lymphocyte cells (whole cells in suspension, 400.000 per tube);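 note: test compound at 10^−5 to 10^−11 M competed for 2 h at 8 °C with the radioligand on 400,000 cells per well, bound versus free activity measured by γ-counting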
T1 sequence (P61073 whole entry): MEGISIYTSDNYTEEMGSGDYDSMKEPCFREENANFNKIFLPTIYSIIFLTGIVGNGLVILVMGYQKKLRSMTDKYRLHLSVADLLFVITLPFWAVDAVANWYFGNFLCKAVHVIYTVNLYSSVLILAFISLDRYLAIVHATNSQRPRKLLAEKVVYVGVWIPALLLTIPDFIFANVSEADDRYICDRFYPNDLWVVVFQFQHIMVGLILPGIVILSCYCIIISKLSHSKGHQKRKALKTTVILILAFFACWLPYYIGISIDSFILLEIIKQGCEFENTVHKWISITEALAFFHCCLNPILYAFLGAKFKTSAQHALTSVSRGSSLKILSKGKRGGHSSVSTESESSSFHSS
Protocol: For in vitro experiments, cells were counted in a hemocytometer using trypan blue as contrast agent. The cell suspension was centrifuged, and the pellet resuspended in HBSS (+1 wt % BSA) to a concentration of 2 mio cells/mL. […] 200 μL of cell suspension (400.000 cells per well) were added to obtain a final peptide concentration range of 10^−5-10^−11 M. The tubes were cooled for 2 h at 8° C. to prevent internalization. The experiment was stopped by removal of the supernatant. 200 μL HBSS were added onto the cells, the suspension centrifuged, and the supernatant pooled with the respective first fractions. This step was repeated once more before the tubes containing the supernatants and the ones containing the cell pellets were subjected to activity measurement in the γ-counter.

[3] = system: CXCR4-expressing Chem_1 cells; test: Determination of internalization, dual tracer with 125I-Fc-131; type: cell-based; details: for Cell-bound [%] / Internalized [%]: of total cellular activity
How it was run: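 Receptor blockade used AMD3100 (1 mM stock) versus medium-treated wells, triplicate per time point, in Chem_1 cells cultured at 37 °C in DMEM-F12/10% FBS. Activity of supernatant, surface-bound and internalized (1 M NaOH) fractions measured by γ-counter, corrected for non-specific uptake and normalised to standard ligand.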

[4] = Octanol/PBS partition coefficient (logD7.4); type: physicochemical; details: n-octanol/PBS pH 7.4, radiolabeled compound
Protocol: The tubes were vortexed at maximum speed for 3 min to ensure equilibrium before centrifugation at 15.000×g for 5 min on a Biofuge 15 from Heraeus Holding GmbH (Osterode, Germany). An aliquot of 100 μL of each fraction was measured in the γ-counter and the log D7.4 calculated as follows: […]

CXCR4 [5] = molecular target: T1, CXCR4; test: Determination of inverse IC50 (invIC50): radiolabeled peptide displaced by Fc-131 on Jurkat cells

Row | SMILES | Internalized in relation to 125I-Fc-131 [%] ([3]; 30 min) | Cell-bound [%] ([3]; 30 min) | Internalized [%] ([3]; 30 min) | Internalization [% Fc-131] ([3]; 90 min) | Internalized in relation to 125I-Fc-131 [%] ([3]; 90 min) | Cell-bound [%] ([3]; 90 min) | Internalized [%] ([3]; 90 min) | logD7.4 [4] | IC50 (CXCR4 [5]) | further results
1 | C[C@@H](NC(=O)[C@@H](CCCNC(=N)N)NC(=O)[C@@H](CO)NC(=O)[C@@H](CO)NC(=O)[C@@H](CO)NC(=O)CS)C(=O)Nc1ccc(C(=O)NCCC[C@@H]2C(=O)N[C@@H](CCCNC(=N)N)C(=O)N[C@@H](Cc3ccc4ccccc4c3)C(=O)NCC(=O)N[C@H](Cc3ccc(O)cc3)C(=O)N2C)cc1 [Tc-CXCR4-1] (I: Mercaptoacetyl-[dS][dS][dS][dR][dA][4Abz] / II: cyclo([dY][dNMeOrn]R[2Nal]G); amide I:C-II:2) | – | – | – | – | – | – | – | – | – | tissue uptake at 1 h ([1]; Blood, read-out: % iD/g Blood): 0.83 %ID/g; tissue uptake at 1 h ([1]; Heart, read-out: % iD/g Heart): 0.54 %ID/g; tissue uptake at 1 h ([1]; Intestine, read-out: % iD/g Intestine): 1.12 %ID/g; tissue uptake at 1 h ([1]; Kidney, read-out: % iD/g Kidney): 4 %ID/g; tissue uptake at 1 h ([1]; Liver, read-out: % iD/g Liver): 3.54 %ID/g; tissue uptake at 1 h ([1]; Lung, read-out: % iD/g Lung): 1.79 %ID/g; tissue uptake at 1 h ([1]; Muscle, read-out: % iD/g Muscle): 0.16 %ID/g; tissue uptake at 1 h ([1]; Pancreas, read-out: % iD/g Pancreas): 0.22 %ID/g; tissue uptake at 1 h ([1]; Spleen, read-out: % iD/g Spleen): 1.09 %ID/g; tissue uptake at 1 h ([1]; Stomach, read-out: % iD/g Stomach): 0.86 %ID/g; tissue uptake at 1 h ([1]; Tumor, read-out: % iD/g Tumor): 1.41 %ID/g; IC50 (CXCR4 [2]): 20.6 ± 7.52 nM
2 | C[C@@H](NC(=O)[C@@H](CCCNC(=N)N)NC(=O)[C@@H](CN)NC(=O)CCCCCNC(=O)[C@@H](CNC(=O)C(CNCCN)CNCCN)NC(=O)CC[C@@H](NC(=O)N[C@H](CCC(=O)O)C(=O)O)C(=O)O)C(=O)Nc1ccc(C(=O)NCCC[C@@H]2C(=O)N[C@@H](CCCNC(=N)N)C(=O)N[C@@H](Cc3ccc4ccccc4c3)C(=O)NCC(=O)N[C@H](Cc3ccc(O)cc3)C(=O)N2C)cc1 [Tc-CXCR4-16] (cyclo([2Nal]G[dY][dNMeOrn]([4Abz-dA-dR-dDap-Ahx-X9])R)) | 230 ± 10.7% | 3.36 ± 0.45% | 15.0 ± 0.31% | 284 (90 min) % Fc-131 | 284 ± 10.4% | 3.53 ± 0.21% | 19.8 ± 0.15% | −2.70 ± 0.04 (8) | 6.08 ± 1.03 nM | –
3 | C[C@@H](NC(=O)[C@@H](CCCNC(=N)N)NC(=O)[C@@H](CN)NC(=O)[C@@H](CNC(=O)C(CNCCN)CNCCN)NC(=O)CCC(NC(=O)N[C@H](CCC(=O)O)C(=O)O)C(=O)O)C(=O)Nc1ccc(C(=O)NCCC[C@@H]2C(=O)N[C@@H](CCCNC(=N)N)C(=O)N[C@@H](Cc3ccc4ccccc4c3)C(=O)NCC(=O)N[C@H](Cc3ccc(O)cc3)C(=O)N2C)cc1 (stereo partly drawn) [Tc-CXCR4-15] (cyclo([2Nal]G[dY][dNMeOrn]([4Abz-dA-dR-dDap-X8])R)) | 214 ± 11.7% | 4.35 ± 0.16% | 12.6 ± 0.34% | 232 (90 min) % Fc-131 | 232 ± 15.3% | 3.42 ± 0.27% | 17.9 ± 1.06% | −3.60 ± 0.02 (8) | 3.69 ± 1.32 nM | –

— patent US20250288704A1, “CXCR4-LIGANDS FOR DIAGNOSTIC AND THERAPEUTIC USE AND PRECURSORS THEREOF” (priority 2021, published 2025)
